Test [1] relates to γ-thrombin-induced platelet aggregation. Kind of test: γ-thrombin-induced platelet aggregation in human platelet-rich plasma. In kind it is cell-based. Particulars: human PRP, assay like Example 1A. On the procedure: For human platelet aggregation studies, 50 ml human blood was collected into a syringe containing 5 ml of 0.013 M sodium citrate. The anticoagulated blood was centrifuged at 180 xg for 10 minutes at room temperature and the platelet-rich plasma was the supernatant. Platelet aggregation studies in platelet-rich plasma were performed in the cuvette of an aggregometer using γ-thrombin (Haematologic Technologies, Essex Junction, Vt.). After standardization of the aggregometer, the threshold dose of γ-thrombin, defined as the minimal concentration that will induce full platelet aggregation, was ascertained for each preparation of platelet-rich plasma. Typically, the threshold dose of γ-thrombin was between 5 and 30 nM.
Various concentrations of the peptide being tested were added to the platelet-rich plasma in the cuvette of the aggregometer. Platelet aggregation was induced by the addition of γ-thrombin. The degree of platelet aggregation was determined by measuring (in arbitrary units) the increase in light transmission through the stirred suspension of platelet-rich plasma. […]
The peptides synthesized in Example 4 were assayed for the ability to inhibit γ-thrombin-induced platelet aggregation in platelet-rich plasma.

The next test concerns the target T1, NAT12.
T1 chain: NATLDPRSFLLR
Nature of the test: cell-based or functional assay.

Square brackets hold non-standard residues; d marks the D form. Ends that are not written are not given here.

These results are taken from US6982249B1, “Bradykinin analogs as selective inhibitors of cell activation” (The Regents of the University of Michigan, priority 1997, dated 2006).

As to Arg-Pro, the “inhibition of γ-thrombin-induced platelet aggregation (in words)” value (from here on “inhibition”) in test [1] is listed as “no inhibitory activity”. For the molecule “Arg-Pro-Pro-Ala-Phe (RPPAF; bradykinin analog)”, the “inhibition” value in test [1] is listed as “showed inhibition”.

As to Arg-Pro-Pro-Amide [RPP-Amide], the “inhibition” value in test [1] is “reduced ability”.

As for [dR]-Pro-Pro, the “inhibition” value in test [1] is given as “reduced ability”. With Arg-[dP]-Pro, the “inhibition” value in test [1] is “reduced ability”. Consider RPPGF (modifications not checked) [Arg-Pro-Pro-Gly-Phe (RPPGF)], for which, in the test with NAT12, the cleavage product peak 2, as a share of the original NAT12 peak area, in the presence of 1 mM peptide was determined as 26%; the cleavage product peak 3, as a share of the original NAT12 peak area, in the presence of 1 mM peptide is 31%; the reduction of the NAT12 HPLC peak area (peak 1) after alpha-thrombin in the presence of 1 mM peptide was found to be 57%.
